From patent US8471005B2 (Cephalon, Inc., priority 2008, dated 2013) come the findings set out here.

One test concerns the target T1, ALK (Homo sapiens, UniProt Q9UM73).
T1 construct: host or cells: baculovirus expression system
As to the kind of experiment: ALK Kinase Assay (ELISA/TRF, PLC-γ substrate). Type of test: biochemical. As to conditions: ALK kinase inhibition, 1 μM ATP; read-out: ALK Potency. A digest of the protocol:
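IC50 values derive from percent inhibition plotted against log10 compound concentration and fitted to a variable-slope sigmoidal equation. The underlying reaction used 30 ng/ml ALK acting on immobilized PLC-γ (10 μg/mL in TBS) at 37° C for 15 minutes, read with Eu-N1 PT66 antibody.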

The next test deals with T2, JAK2 (Homo sapiens, UniProt O60674).
T2 construct: host or cells: baculovirus expression system
As to the kind of experiment: Recombinant Human JAK2 Kinase Assay (TRF). As to conditions: JAK2 kinase inhibition, 0.2 μM ATP; read-out: JAK2 Potency. Type of test: biochemical. A digest of the protocol:
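Baculovirus-expressed JAK2 (15 ng/ml) phosphorylated a biotinylated 15-mer peptide captured on Neutravidin, in 20 mM HEPES pH 7.2, 0.2 μM ATP, 1 mM MnCl2, 0.1% BSA, 2.5% DMSO final, 20 min at room temperature. Phosphoproduct detected by time-resolved fluorescence with Eu-N1-labelled PY100 antibody.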

Bounds are passed on as bounds.

T2 sequence (O60674 whole entry): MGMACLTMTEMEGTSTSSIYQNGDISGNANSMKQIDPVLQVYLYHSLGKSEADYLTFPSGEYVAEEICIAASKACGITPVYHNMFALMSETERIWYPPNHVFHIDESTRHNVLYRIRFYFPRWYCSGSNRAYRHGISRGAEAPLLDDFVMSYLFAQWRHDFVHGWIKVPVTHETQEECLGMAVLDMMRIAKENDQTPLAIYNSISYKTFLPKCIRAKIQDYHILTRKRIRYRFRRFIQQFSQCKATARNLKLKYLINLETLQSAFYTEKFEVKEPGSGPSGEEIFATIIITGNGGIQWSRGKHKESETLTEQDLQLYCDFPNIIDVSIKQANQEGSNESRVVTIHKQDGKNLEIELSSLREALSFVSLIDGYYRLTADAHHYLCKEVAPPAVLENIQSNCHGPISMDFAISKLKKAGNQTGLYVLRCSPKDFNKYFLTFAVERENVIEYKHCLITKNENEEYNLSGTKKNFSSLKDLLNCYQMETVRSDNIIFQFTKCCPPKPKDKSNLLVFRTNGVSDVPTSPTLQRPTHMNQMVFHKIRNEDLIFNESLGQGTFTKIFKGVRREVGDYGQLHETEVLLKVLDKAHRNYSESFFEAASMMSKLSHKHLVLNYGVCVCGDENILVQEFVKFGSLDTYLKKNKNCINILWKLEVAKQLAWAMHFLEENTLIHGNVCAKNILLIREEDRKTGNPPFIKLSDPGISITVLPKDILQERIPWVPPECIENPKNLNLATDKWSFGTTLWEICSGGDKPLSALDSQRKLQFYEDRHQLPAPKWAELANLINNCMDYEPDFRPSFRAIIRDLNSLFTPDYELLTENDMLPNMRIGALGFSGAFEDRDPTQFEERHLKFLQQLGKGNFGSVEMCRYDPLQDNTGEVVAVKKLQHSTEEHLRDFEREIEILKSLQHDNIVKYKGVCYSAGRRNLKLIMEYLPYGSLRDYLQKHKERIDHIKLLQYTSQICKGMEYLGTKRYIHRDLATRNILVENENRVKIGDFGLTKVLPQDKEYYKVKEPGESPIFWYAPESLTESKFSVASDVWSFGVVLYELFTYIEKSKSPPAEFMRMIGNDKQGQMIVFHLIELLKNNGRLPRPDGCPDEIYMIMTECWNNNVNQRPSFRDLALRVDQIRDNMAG
T1 sequence (Q9UM73 19-1620): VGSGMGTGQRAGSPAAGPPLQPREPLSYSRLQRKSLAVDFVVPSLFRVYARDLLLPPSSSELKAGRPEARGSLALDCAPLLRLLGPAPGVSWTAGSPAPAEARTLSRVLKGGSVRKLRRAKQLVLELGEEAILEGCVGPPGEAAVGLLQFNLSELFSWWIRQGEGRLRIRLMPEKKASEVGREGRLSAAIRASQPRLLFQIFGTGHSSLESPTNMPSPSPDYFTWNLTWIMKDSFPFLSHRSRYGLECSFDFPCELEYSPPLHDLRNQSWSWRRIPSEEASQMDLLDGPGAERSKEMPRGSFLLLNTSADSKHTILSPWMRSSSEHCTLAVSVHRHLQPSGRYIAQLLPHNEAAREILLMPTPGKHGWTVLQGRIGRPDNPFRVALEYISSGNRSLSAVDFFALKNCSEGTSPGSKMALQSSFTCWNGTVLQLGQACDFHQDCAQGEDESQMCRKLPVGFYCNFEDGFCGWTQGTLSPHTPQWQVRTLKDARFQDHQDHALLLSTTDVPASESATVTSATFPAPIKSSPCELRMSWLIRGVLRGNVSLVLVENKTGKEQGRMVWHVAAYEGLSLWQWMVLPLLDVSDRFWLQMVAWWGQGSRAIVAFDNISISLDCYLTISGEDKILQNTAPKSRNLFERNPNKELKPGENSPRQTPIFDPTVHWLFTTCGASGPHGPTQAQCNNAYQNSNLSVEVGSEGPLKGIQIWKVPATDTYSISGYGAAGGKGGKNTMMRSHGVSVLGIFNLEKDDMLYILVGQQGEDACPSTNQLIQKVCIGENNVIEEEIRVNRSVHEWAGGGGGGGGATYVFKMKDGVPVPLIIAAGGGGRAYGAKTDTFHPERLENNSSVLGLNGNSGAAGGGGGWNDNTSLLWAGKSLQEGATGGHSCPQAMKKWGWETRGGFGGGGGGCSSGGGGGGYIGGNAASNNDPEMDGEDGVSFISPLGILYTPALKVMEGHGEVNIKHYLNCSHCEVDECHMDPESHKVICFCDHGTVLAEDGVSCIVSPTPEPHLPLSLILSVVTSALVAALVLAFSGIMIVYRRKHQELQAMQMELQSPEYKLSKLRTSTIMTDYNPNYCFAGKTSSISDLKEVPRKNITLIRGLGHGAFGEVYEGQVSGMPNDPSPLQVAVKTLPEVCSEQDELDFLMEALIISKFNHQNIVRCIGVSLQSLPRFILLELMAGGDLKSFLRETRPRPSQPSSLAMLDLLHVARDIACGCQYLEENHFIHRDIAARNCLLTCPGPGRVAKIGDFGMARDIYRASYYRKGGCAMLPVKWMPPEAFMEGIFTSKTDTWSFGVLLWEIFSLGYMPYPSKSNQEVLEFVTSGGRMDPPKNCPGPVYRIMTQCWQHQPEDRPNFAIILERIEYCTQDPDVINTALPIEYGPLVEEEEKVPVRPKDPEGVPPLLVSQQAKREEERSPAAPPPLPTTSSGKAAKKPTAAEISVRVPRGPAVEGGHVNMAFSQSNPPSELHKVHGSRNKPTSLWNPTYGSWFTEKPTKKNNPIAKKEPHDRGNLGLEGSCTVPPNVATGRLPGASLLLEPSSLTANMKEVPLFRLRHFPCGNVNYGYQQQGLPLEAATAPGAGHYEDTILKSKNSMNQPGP

Turning to `c1cc(Sc2ccc3cnc(Nc4ccc(N5CCOCC5)cc4)nn23)ccn1` [Example 1116, (4-Morpholin-4-yl-phenyl)-[7-(pyridin-4-ylsulfanyl)-pyrrolo[2,1-f][1,2,4]triazin-2-yl]-amine], the IC50 at ALK is 1000 to 10000 nM; at JAK2 it was < 100 nM.
Take `CN1CCN(c2ccc(Nc3ncc4ccc(Sc5ccncc5)n4n3)cc2)CC1` [Example 1117, [4-(4-Methyl-piperazin-1-yl)-phenyl]-[7-(pyridin-4-ylsulfanyl)-pyrrolo[2,1-f][1,2,4]triazin-2-yl]-amine]: the IC50 at ALK is 1000 to 10000 nM; on JAK2 it was < 100 nM.
For `CN1CCN(c2ccc(Nc3ncc4ccc(-c5ccc(N)nc5)n4n3)cc2)CC1` [Example 1118, [7-(6-Amino-pyridin-3-yl)-pyrrolo[2,1-f][1,2,4]triazin-2-yl]-[4-(4-methyl-piperazin-1-yl)-phenyl]-amine] the same measures were 100 to 1000 nM and < 100 nM.
Take `CN1CCC(c2ccc(Nc3ncc4ccc(-c5ccc(S(C)(=O)=O)cc5)n4n3)cc2)CC1` [Example 1119, [7-(4-Methanesulfonyl-phenyl)-pyrrolo[2,1-f][1,2,4]triazin-2-yl]-[4-(1-methyl-piperidin-4-yl)-phenyl]-amine]: the IC50 at ALK and on JAK2 was < 100 nM in each case.
Turning to `CN1CCC(c2ccc(Nc3ncc4ccc(-c5cccc(S(C)(=O)=O)c5)n4n3)cc2)CC1` [Example 1120, [7-(3-Methanesulfonyl-phenyl)-pyrrolo[2,1-f][1,2,4]triazin-2-yl]-[4-(1-methyl-piperidin-4-yl)-phenyl]-amine], the values for the IC50 at ALK and on JAK2 were 100 to 1000 nM and < 100 nM, respectively.
For `COc1ccc(Cl)cc1-c1ccc2cnc(Nc3ccc(C4CCN(C)CC4)cc3)nn12` [Example 1121, [7-(5-Chloro-2-methoxy-phenyl)-pyrrolo[2,1-f][1,2,4]triazin-2-yl]-[4-(1-methyl-piperidin-4-yl)-phenyl]-amine], in that order: < 100 nM and < 100 nM.
For `CN1CCN(c2ccc(Nc3ncc4ccc(-c5cccc(NS(C)(=O)=O)c5)n4n3)cn2)CC1` [Example 1122, N-(3-{2-[6-(4-Methyl-piperazin-1-yl)-pyridin-3-ylamino]-pyrrolo[2,1-f][1,2,4]triazin-7-yl}-phenyl)-methanesulfonamide], in that order: 100 to 1000 nM and < 100 nM.
For `CN1CCN(c2ccc(Nc3ncc4ccc(-c5cccc(S(C)(=O)=O)c5)n4n3)cn2)CC1` [Example 1123, [7-(3-Methanesulfonyl-phenyl)-pyrrolo[2,1-f][1,2,4]triazin-2-yl]-[6-(4-methyl-piperazin-1-yl)-pyridin-3-yl]-amine], in that order: 100 to 1000 nM and < 100 nM.
`CN1CCN(Cc2cccc(Nc3ncc4ccc(-c5cccc(S(C)(=O)=O)c5)n4n3)n2)CC1` [Example 1124, [7-(3-Methanesulfonyl-phenyl)-pyrrolo[2,1-f][1,2,4]triazin-2-yl]-[6-(4-methyl-piperazin-1-ylmethyl)-pyridin-2-yl]-amine]: the IC50 on ALK and on JAK2 was > 10000 nM in each case.
For the compound `COc1ccccc1-c1ccc2cnc(Nc3ccc(C4CCN(C[C@H](O)CO)CC4)cc3)nn12` [Example 1125, (S)-3-(4-{4-[7-(2-Methoxy-phenyl)-pyrrolo[2,1-f][1,2,4]triazin-2-ylamino]-phenyl}-piperidin-1-yl)-propane-1,2-diol], the IC50 on ALK and on JAK2 was < 100 nM throughout.
For `CN1CCN(c2ccc(Nc3ncc4ccc(-c5cccc(S(=O)(=O)NC(C)(C)C)c5)n4n3)cn2)CC1` [Example 1127, N-tert-Butyl-3-{2-[6-(4-methyl-piperazin-1-yl)-pyridin-3-ylamino]-pyrrolo[2,1-f][1,2,4]triazin-7-yl}-benzenesulfonamide], the figures for the IC50 on ALK and at JAK2 were 100 to 1000 nM and < 100 nM, respectively.
For `CS(=O)(=O)N1CC=C(c2ccc3cnc(Nc4ccc(N5CCOCC5)cc4)nn23)CC1` [Example 1129, [7-(1-Methanesulfonyl-1,2,3,6-tetrahydro-pyridin-4-yl)-pyrrolo[2,1-f][1,2,4]triazin-2-yl]-(4-morpholin-4-yl-phenyl)-amine], in that order: 1000 to 10000 nM and < 100 nM.
For `OC[C@@H](O)CN1CCC(c2ccc(Nc3ncc4ccc(-c5cccc(Cl)c5)n4n3)cc2)CC1` [Example 1130, (S)-3-(4-{4-[7-(3-Chloro-phenyl)-pyrrolo[2,1-f][1,2,4]triazin-2-ylamino]-phenyl}-piperidin-1-yl)-propane-1,2-diol], in that order: < 100 nM and < 100 nM.
For `CN1CCC(c2ccc(Nc3ncc4ccc(-c5cccc(Cl)c5)n4n3)cc2)CC1` [Example 1131, [7-(3-Chloro-phenyl)-pyrrolo[2,1-f][1,2,4]triazin-2-yl]-[4-(1-methyl-piperidin-4-yl)-phenyl]-amine], in that order: < 100 nM and < 100 nM.
Consider `COc1ccccc1-c1ccc2cnc(Nc3ccc(C4CCN(C)CC4)cc3)nn12` [Example 1132, [7-(2-Methoxy-phenyl)-pyrrolo[2,1-f][1,2,4]triazin-2-yl]-[4-(1-methyl-piperidin-4-yl)-phenyl]-amine], for which the IC50 on ALK and on JAK2 was < 100 nM throughout.
On to `OCC1CCN(c2ccc(Nc3ncc4ccc(-c5cccc(Cl)c5)n4n3)cc2)CC1` [Example 1133, (1-{4-[7-(3-Chloro-phenyl)-pyrrolo[2,1-f][1,2,4]triazin-2-ylamino]-phenyl}-piperidin-4-yl)-methanol], for which the IC50 on ALK is 100 to 1000 nM; at JAK2 it was < 100 nM.
For the compound `OCCN1CCN(c2ccc(Nc3ncc4ccc(-c5cccc(Cl)c5)n4n3)cc2)CC1` [Example 1134, 2-(4-{4-[7-(3-Chloro-phenyl)-pyrrolo[2,1-f][1,2,4]triazin-2-ylamino]-phenyl}-piperazin-1-yl)-ethanol], the IC50 at ALK and at JAK2 was < 100 nM throughout.
For `CN1CCN(c2ccc(Nc3ncc4ccc(C5=CCN(C(=O)OC(C)(C)C)CC5)n4n3)cc2)CC1` [Example 1135, 4-{2-[4-(4-Methyl-piperazin-1-yl)-phenylamino]-pyrrolo[2,1-f][1,2,4]triazin-7-yl}-3,6-dihydro-2H-pyridine-1-carboxylic acid tert-butyl ester], the IC50 at ALK is 100 to 1000 nM; on JAK2, < 100 nM.
For `CCN(CC)C1CCN(c2ccc(Nc3ncc4ccc(-c5cccc(S(C)(=O)=O)c5)n4n3)cc2)CC1` [Example 1137, [4-(4-Diethylamino-piperidin-1-yl)-phenyl]-[7-(3-methanesulfonyl-phenyl)-pyrrolo[2,1-f][1,2,4]triazin-2-yl]-amine] the same measures were 100 to 1000 nM and < 100 nM.
`CCN(CC)C1CCN(c2ccc(Nc3ncc4ccc(-c5ccccc5OC)n4n3)cc2)CC1` [Example 1138, [4-(4-Diethylamino-piperidin-1-yl)-phenyl]-[7-(2-methoxy-phenyl)-pyrrolo[2,1-f][1,2,4]triazin-2-yl]-amine]: the IC50 at ALK and at JAK2 was < 100 nM in each case.
`CN1CCN(c2ccc(Nc3ncc4ccc(C5=CCN(S(C)(=O)=O)CC5)n4n3)cc2)CC1` [Example 1139, [7-(1-Methane sulfonyl-1,2,3,6-tetrahydro-pyridin-4-yl)-pyrrolo[2,1-f][1,2,4]triazin-2-yl]-[4-(4-methyl-piperazin-1-yl)-phenyl]-amine]: the IC50 is 100 to 1000 nM on ALK and < 100 nM on JAK2.
